Series [1] concerns isolated embryonic rat cardiomyocytes. The series is described as follows: Spontaneous action potentials in rat cardiomyocytes, whole-cell patch clamp. Type of series: cell-based. Conditions: for effect on arrhythmic firing induced by Chromanol 293B: 30 μM N-AT in the presence of 5 μM Chromanol 293B. On the procedure: On gestation day (GD) 16 of pregnancy time-mated Sprague Dawley rats (Taconic, Denmark) were sacrificed in a CO2 chamber followed by cervical dislocation. Cell preparation of cardiomyocytes and culturing on glass coverslips were made (Danielsson, C. et al. Cardiovasc Res 97, 23-32 (2013)). Spontaneous action potentials were measured using the patch-clamp technique, whole cell configuration, 1-3 days after culturing. An Axopatch 200B patch-clamp amplifier, Digidata 1140A converter (Molecular Devices) and pClamp software (Molecular Devices) were used to acquire data. The extracellular solution contained (in mM): 140 NaCl, 5.4 KCl, 1 MgCl2, 1.8 CaCl2, 10 Glucose and 10 HEPES (pH 7.4, adjusted with NaOH). The intracellular solution contained (in mM): 130 K-gluconate, 9 KCl, 8 NaCl, 10 EGTA, 1 MgCl2, 10 HEPES and 3 MgATP (pH 7.3, adjusted with KOH). The solutions were perfused through the recording chamber (flow: 0.5 mL/min). All chemicals were purchased from Sigma-Aldrich. […] All experiments were carried out at 35° C. To analyze action potential characteristics a stable 60-seconds recording was selected before and after application of the test solution. The average data were then calculated for the complete trace in Clampfit 10 (Molecular Devices). Liquid junction potential was not adjusted for.
Average values are expressed as mean±SEM. Mean values for shifts in voltage dependence were analyzed using a two-tailed one samplet-test where mean values were compared with a hypothetical value of 0 or where mean values were compared to each other. Effects of N-AT on action potential peak amplitude and RMP in cardiomyocytes were analyzed using paired two-tailed t-test. Effects of N-AT on the relative change of APD and RR-interval were analyzed using two-tailed one samplet-test where mean values were compared with a hypothetical value of 1. P<0.05 is considered as statistically significant.
The effect of N-arachidonoyl taurine on isolated embryonic rat cardiomyocytes was tested. A sub-saturating concentration of the IKs channel blocker Chromanol 293B, which is known to induce arrhythmia (Aiba, T. et al. J Am Coll Cardiol 45, 300-307 (2005)), was applied to the cardiomyocytes. In general, two types of effects are seen upon Chromanol 293B application: (1) arrhythmic firing (FIG. 8A-B) or (2) a slowing of the frequency of spontaneous action potential firing (FIG. 8D-E). The different effects are most likely due to different subtypes of cardiomyocytes. […] The anti-arrhythmic effect of N-arachidonoyl taurine was associated with a shortening of the cardiomyocyte action potential duration and an increase in the frequency of action potential firing (FIG. 8G-I, Table 2). 30 μM N-arachidonoyl taurine had no effect on the resting membrane potential (Table 2) but decreased the action potential peak amplitude by −9±1 mV (Table 2).
Cardiomyocytes were isolated from rat heart and the spontaneous electrical activity in the cardiomyocytes was measured using the current clamp mode of patch clamp. […] Further, arrhythmia was induced in these cardiomyocytes by the IKs specific drug chromanol. In the presence of 5 μM chromanol, there are clearly additional action potentials caused by early after depolarizations (EADs) (FIG. 9D). EADs are known to accompany Long QT and could lead to ventricular fibrillation and cardiac sudden death in the intact heart. […] N-AT and chromanol are known to bind to different parts of the IKs channels (chromanol is a pore blocker, whereas N-AT is binding to the voltage sensor), so this effect of N-AT is not just a competition with chromanol to the same binding site. Rather, N-AT increases the currents by attracting the voltage sensor, whereas chromanol is known to block the currents by binding to the pore.

The test system of the next series is intact guinea pig hearts. Briefly: Restoration of QT interval in intact hearts with E4031-induced Long QT. Conditions: ECG and ventricular surface action potential. From the text: Long QT syndrome was induced in intact guinea pig hearts by administration of the drug E4031, a HERG channel blocker.
Another series is described as follows: in vitro. As to conditions: human, Caco-2.
Setting [2] is: 30 μM N-AT vs control, listed as N-arachidonoyl taurine.

Entries after “also recorded” stand apart in the source; their conditions may differ.

By efflux ratio is commonly meant the permeability from basolateral to apical divided by that in the opposite direction, in the common usage. For `CCCCC/C=C\C/C=C\C/C=C\C/C=C\CCCC(=O)NCCS(=O)(=O)O` [N-AT, N-arachidonoyl taurine], in series [1] (30 μM N-AT), the “APD30, Mean ± SEM” value worked out at 211 ± 37 ms; the “APD50, Mean ± SEM” value came out at 279 ± 47 ms; the “APD70, Mean ± SEM” value is reported as 336 ± 50 ms; the “Amplpeak (peak action potential amplitude), Mean ± SEM” value worked out at 32 ± 2 mV. In addition, in series [1] (30 μM N-AT), the “RMP (resting membrane potential), Mean ± SEM” value is listed as −56 ± 2 mV; the “RR-interval, Mean ± SEM” value stood at 2075 ± 197 ms; the “length of the ventricular action potential / action potential duration” value is “reduced the length of the ventricular action potential; also recorded: shortened the cardiomyocyte action potential duration”. The “effect on arrhythmic firing induced by Chromanol 293B” value in series [1] was “restores rhythmic firing; also recorded: reversed the arrhythmic behavior”. Also, the “effect on arrhythmic firing induced by Chromanol 293B” value in series [1] (listed as N-arachidonoyl taurine) was “reversed the effect”. Also, in series [1] (30 μM N-AT in the presence of 5 μM chromanol), the “early after depolarizations (EADs)” value is “removed these EADs”. In addition, in series [1] (30 μM N-AT vs control), the “APD30, Change (relative change)” value came out at 0.81 ± 0.04; the “APD50, Change (relative change)” value turned out to be 0.83 ± 0.03; the “APD70, Change (relative change)” value came to 0.84 ± 0.03; the “Amplpeak, Change” value was −9 ± 1 mV. Moreover, the “RR-interval, Change (relative change)” value in series [1] (30 μM N-AT vs control) came out at 0.74 ± 0.05. In addition, in series [1] (setting [2]), the “Amplpeak, Change” value is recorded as −9±1 mV and the “RMP, Change” value is recorded as “no effect”. For the same molecule, the “QT interval in hearts with prolonged QT induced by E4031” value in the series with intact guinea pig hearts is reported as “restores the QT interval”. Also, the efflux ratio in the series “in vitro” was 1.9.

(Values after patent US20170216240A1, “METHODS FOR MODULATING IKS CHANNEL ACTIVITY” (UNIVERSITY OF MIAMI, priority 2014, published 2017).)
